The record followed here is ChEMBL document CHEMBL1129003, “Cycloleonuripeptides A, B and C, three new proline-rich cyclic nonapeptides from Leonurus heterophyllus” (Bioorg Med Chem Lett, 1996).

The structures appear in SMILES notation. ≈ marks a conversion by molar mass, not a printed value.

For the assay, the system named is P388. Put plainly: Compound was evaluated for the growth inhibitory activity against p-388 lymphocytic leukemia cells. In kind it is functional, cell-based, Mus musculus.

A word on the IC50: it is the concentration that gives 50% inhibition. `CC[C@@H](C)[C@H]1NC(=O)[C@@H](CC[S+](C)[O-])NC(=O)[C@H]2CCCN2C(=O)[C@H]2CCCN2C(=O)[C@@H](Cc2ccc(O)cc2)NC(=O)[C@H]2CCCN2C(=O)[C@H]2CCCN2C(=O)[C@H]2CCCN2C(=O)CNC1=O` (single isomer, unassigned; isomer 1) yielded an IC50 (p388) of 6 µg/mL (≈ 6.21 µM). In the case of `CC[C@@H](C)[C@H]1NC(=O)[C@@H](CC[S+](C)[O-])NC(=O)[C@H]2CCCN2C(=O)[C@H]2CCCN2C(=O)[C@@H](Cc2ccc(O)cc2)NC(=O)[C@H]2CCCN2C(=O)[C@H]2CCCN2C(=O)[C@H]2CCCN2C(=O)CNC1=O` (single isomer, unassigned; isomer 2), the IC50 (Mus musculus, P388, read-out: IC50) was 3.7 µg/mL (≈ 3.83 µM).
